# In patent EP0231622B1, “Inhibition of the 5-lipoxygenase pathway” (priority 1985, dated 1987):
# Like-named read-outs stand apart in the source and are kept apart here. Marks after values point to notes of the source that are not given here.
# Experiments:
# [1] = system: Arachidonic Acid-Induced Cellular Infiltration; assay: Arachidonic acid-induced air pouch inflammation; format: in vivo, Lewis rats; details: 3 hours after arachidonic acid
# From the text: (§1) In the following Examples where mice were used, they were male Balb/c mice (20-28 g), and where rats were used, they were male Lewis rats (180-210 g). All mice and rats were obtained from Charles River Breeding Laboratories, Kingston, N.Y. Within a single experiment, mice and rats were sex and age matched.
# (§2) The compounds of Formula (IA) were used either as the free base or in the appropriate salt form. Levamisole was used as the hydrochloride salt. The compounds were homogenized in 0.5% tragacanth. Compounds were administered by gavage at the indicated dose in a final volume of 10 ml/kg. Nordihydroguaiaretic acid (NDGA) was solubilized in dimethylacetamide and diluted with olive oil for subcutaneous administration.
# (§3) Rats were shaved on the dorsal flank, and then injected subcutaneously one day later with 20 ml of air to form a defined pouch, by the method of Sedgwick et al., J. Pathology, 141, 483-495 (1983). The air pouch was reinflated as necessary over the next 6 days. To assay anti-inflammatory activity, animals were treated orally with test compound or vehicle (10 ml/kg) one hour before injection of 2.0 ml of a 2.0% carrageenan suspension containing 200 units/ml penicillin and 100 »g/ml streptomycin into the air pouch. In other experiments, 5 ml of 0.1% arachidonic acid in 0.2 M bicarbonate buffer was injected two hours after drug treatment. Animals were sacrificed using CO₂ three hours after instillation of irritant. The exudate was then aspirated from the pouch and neutrophil count and differential cell count were measured.
# [2] = system: Arachidonic Acid-Induced Inflammation of the Mouse Ear; assay: Arachidonic acid-induced mouse ear inflammation; format: in vivo, Balb/c mice
# From the text: as §1, §2
# Arachidonic acid in acetone (2 mg/20 ul) was applied to the inner surface of the left ear. The thickness of both ears was then measured with a dial micrometer one hour after treatment, and the data were expressed as the change in thickness (10⁻³ cm) between treated and untreated ears.
# Test compounds were given orally in 0.5% tragacanth at the times indicated in the text prior to the topical application of arachidonic acid.
# Parenteral administration of compound was accomplished by subcutaneous injection of solution as indicated.
# [3] = system: Arachidonic Acid-Induced Rat Paw Edema; assay: Arachidonic acid-induced rat paw swelling; format: in vivo, Lewis rats; details: read at 2 hours; for Change in Paw Volume: one hour before arachidonic acid
# From the text: as §1, §2
# [4] = system: Production of PGE₂ by Mouse Peritoneal Exudate Cells; assay: PGE2 production by peritoneal macrophages; format: cell-based
# Method: (§4) For in vitro experiments, compounds were dissolved at appropriate concentrations in ethanol or DMSO (dimethylsulfoxide) (final concentration <1.0%) and then diluted to final concentrations using the buffers indicated in the text.
# Mice were injected intraperitoneally with 350 »g Corynebacterium parvum and the peritoneal exudate cell population was harvested 12-14 days later by peritoneal lavage with cold phosphate-buffered saline, and resuspended in Eagles minimal essential medium supplemented with 5% fetal calf serum. […] Test compounds were added (100 ul) to bring the final volume to 1.0 ml. Lipopolysaccharide (5 »g/ml) was then added to stimulate PGE₂ synthesis. After incubation at 37°C for 2 hours, cell-free supernatants were harvested, placed in polypropylene tubes and frozen at -20°C until assayed for their PGE₂ content using a commercial radioimmunoassay kit. IC₅₀ is the concentration that inhibits 50% of control activity.
# [5] = system: Polymorphonuclear Leukocytes; assay: Mouse Carrageenan Peritonitis (PMN infiltration); format: in vivo, Balb/c mice; details: p.o.
# From the text: as §1, §2
# Mice were pretreated with either the test compound or vehicle one hour before the intraperitoneal injection of a 1.0% carrageenan suspension in saline (0.2 ml/ mouse). Mice were sacrificed by cervical dislocation two hours after injection, and 3.0 ml of phosphate buffered saline, without Ca⁺⁺ or Mg⁺⁺, was injected into the peritoneum. Following massage, a 2.0 ml aliquot of the lavage fluid was removed, and the total cell count determined on a Coulter counter and differential cell count determined by microscopic examination of Giesma-stained slides.
# [6] = system: Carrageenan-Induced Cellular Infiltration; assay: Carrageenan-induced air pouch inflammation; format: in vivo, Lewis rats; details: 3 hours after carrageenan
# From the text: as §1, §2, §3
# 5-LO = target: T1, 5-LO (Rattus norvegicus, UniProt P12527); assay: di-HETE production by RBL-1 high speed supernatant; format: biochemical; details: concentrations up to 10⁻⁴M; soluble extract of RBL-1 cells
# T1 construct: The activities of these enzymes in extracts of RBL-1 cells were assayed; host or cells: RBL-1 cells, disrupted by nitrogen cavitation; 10,000 x g or 100,000 x g supernatant
# T1 sequence (P12527 1-673): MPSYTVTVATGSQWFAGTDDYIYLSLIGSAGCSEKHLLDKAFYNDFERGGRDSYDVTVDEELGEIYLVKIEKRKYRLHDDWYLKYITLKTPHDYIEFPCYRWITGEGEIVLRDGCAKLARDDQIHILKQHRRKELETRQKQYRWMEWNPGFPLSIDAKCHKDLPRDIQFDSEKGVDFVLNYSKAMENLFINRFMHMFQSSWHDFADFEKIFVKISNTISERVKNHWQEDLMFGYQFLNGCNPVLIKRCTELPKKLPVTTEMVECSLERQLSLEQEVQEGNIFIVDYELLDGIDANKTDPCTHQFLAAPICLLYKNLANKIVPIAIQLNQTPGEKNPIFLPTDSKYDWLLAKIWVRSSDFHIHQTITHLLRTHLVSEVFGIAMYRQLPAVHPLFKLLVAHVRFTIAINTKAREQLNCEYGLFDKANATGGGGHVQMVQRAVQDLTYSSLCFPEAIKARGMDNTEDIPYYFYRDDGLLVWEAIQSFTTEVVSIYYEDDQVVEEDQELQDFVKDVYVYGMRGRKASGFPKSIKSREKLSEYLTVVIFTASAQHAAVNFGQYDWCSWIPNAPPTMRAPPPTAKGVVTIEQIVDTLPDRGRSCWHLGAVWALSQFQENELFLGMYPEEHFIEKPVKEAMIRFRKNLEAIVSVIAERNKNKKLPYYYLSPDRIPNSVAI
# Method: as §4
# The activities of these enzymes in extracts of RBL-1 cells were assayed using the method of Jakschik and Lee, Nature, 287, 51-52 (1980). RBL-1 cells were obtained from the American Type Culture Collection (#CRL 1378) and were grown at 37°C (5% CO₂ in air) in spinner culture in MEM supplemented with 10% heat inactivated fetal calf serum. Harvested cells were washed with 50 mM sodium phosphate buffer, pH 7.0, containing 1 mM EDTA and 0.1% gelatin, resuspended in fresh buffer (5 x 10⁷ cells/ml) and disrupted by nitrogen cavitation using the Parr bomb at 750 psi for 10 min. The broken cell extract was then centrifuged at 10,000 x g for 20 minutes and the supernatant centrifuged at 100,000 x g for 60 minutes. Aliquots (0.25 mls) of the supernatant were preincubated with or without drugs for 10 min, after which 10 ul CaCl₂ (50 mM) was added and the reaction was initiated with 2.5 ul of 2.5 mM arachidonic acid-1-¹⁴C (final concentration was […]; specific activity 20,000 dpm/nmole). After incubation for 3 min at 37°C, the reaction was terminated by addition of 2 volumes (0.5 ml) ice cold acetone and the sample was allowed to deproteinize on ice for 10 min prior to centrifugation at 1,000 x g for 10 min. The deproteinized supernatant was adjusted to pH 3.5 with 2N formic acid and extracted with 2 volumes of ice cold ethyl acetate. The extracted samples were dried under argon, redissolved in ethyl acetate and applied to Whatman LK5D thin layer chromatography (TLC) plates which were developed using the A-9 solvent system [organic phase of ethyl acetate: 2,2,5-trimethylpentane:acetic acid: water (110:50:20:10)] described by Hamberg and Samuelsson, J. Biol. Chem., 241, 257-263 (1966). Arachidonic acid, 5-HETE, di-HETE and PGD₂ were quantified with a Berthold LB 2832 autoscanner.
# The 5-lipoxygenase and LTA₄ synthetase activities were further studied under the following conditions. An additional centrifugation of the RBL-1 supernatant was run at 100,000 x g for 60 min, to remove the particulate cyclooxygenase activity. Sample incubation was done under conditions similar to those described above, i.e., 2 mM CaCl₂ and 25 uM arachidonic acid-1-¹⁴C, however, with an incubation time of 5 min at […]. Under these conditions, only the 5-lipoxygenase pathway metabolites were detectable. The 5-HETE and di-HETEs were formed at a linear rate, and […] amounts of the arachidonic acid-1-¹⁴C substrate were utilized.
# [7] = system: Experimental Allergic Encephalomyelitis; assay: Experimental allergic encephalomyelitis, hindleg paralysis; format: in vivo, Female Lewis rats; details: p.o. days 0-4, 7-11, 14-18
# Method: EAE is induced in Female (Charles River) Lewis rats by a single intradermal injection of 0.1 ml of an encephalitogenic emulsion consisting of equial parts of a 50% w/v homogenate of guinea pig spinal cord and mid-brain in 0.5% aqueous phenol and Freund's complete adjuvant (4 mg/ml killed, dried M. butyricum) into a hindpaw (left) footpad. […] Any animal which becomes paralyzed during the course of the experiment is considered to have developed EAE whether or not the paralysis is permanent. Test compounds are administered daily beginning on the day of injection, for 19 days, exclusive of days 5, 6 12 and 13. Drug activity is determined by comparing the indicidence of EAE (paralysis) of the treated group with a control (vehicle) group. The level of significant difference between the treated groups and control groups is determined by a Chi-square test using a 2x2 contingency table. Body weight changes from day 0 are also statistically compared to the control group using a Student "t" test.
smiles,measurement,setting,value
O=C1CCN(c2ccccc2)N1 [Phenidone],Cellular Infiltrate (Total x 10⁻⁶) MN,[1]; 100 mg/kg,2.2 ± 1.5^d x 10⁻⁶
same,Cellular Infiltrate (Total x 10⁻⁶) PMN,[1]; 100 mg/kg,1.3 ± 0.8^e x 10⁻⁶
same,Exudate Volume,[1]; 100 mg/kg,2.8 ± 0.4 mL
same,ED50,"[2]; Mus musculus, po, 1 hour after 2 mg of arachidonic acid to the ear, read-out: ED₅₀ (inhibition of the edematous response of the ear)",44 mg/kg
same,% Change,"[2]; Table 7, 50 mg/kg, p.o.",-57^b %
same,Increase in Ear Thickness at 1 Hour (x 10⁻³ cm),"[2]; Table 7, 50 mg/kg, p.o., 15 minutes before arachidonic acid",12.2 ± 1.6 x 10⁻³ cm
same,Change in Paw Volume,[3]; 100 mg/kg,0.13 ± 0.05 mL
same,(% Inhibition) of change in paw volume,[3]; 100 mg/kg,52%
same,IC50,"[4]; Macrophage, read-out: IC₅₀ production of PGE₂ by inflammatory macrophages",28 µM
same,IC50,"[4]; Peritoneal macrophage, Table 10, LPS-stimulated, C. parvum-elicited peritoneal exudate cells, read-out: IC₅₀ (»M) production of PGE₂",28 µM
same,% Change,"[5]; Table 1, 50 mg/kg",-51^c %
same,PMN x 10⁻⁵/ml (mean ± S.D.),"[5]; Table 1, 50 mg/kg",5.30 ± 2.25 x 10⁻⁵/ml
same,PMN x 10⁻⁵/ml (mean ± S.D.),"[5]; Table 1, 100 mg/kg, 1 h before i.p. carrageenan, read 2 h later",6.97 ± 3.81 x 10⁻⁵/ml
same,% Change,"[5]; Table 1, 100 mg/kg, PMN vs vehicle",-36^d %
same,% Change,"[5]; Table 1, 200 mg/kg",-94^b %
same,PMN x 10⁻⁵/ml (mean ± S.D.),"[5]; Table 1, 200 mg/kg",0.66 ± 0.53 x 10⁻⁵/ml
same,Cellular Infiltrate (Total x 10⁻⁶) MN,[6]; 100 mg/kg,3.5 ± 1.4 x 10⁻⁶
same,Cellular Infiltrate (Total x 10⁻⁶) PMN,[6]; 100 mg/kg,1.7 ± 0.6^d x 10⁻⁶
same,Exudate Volume,[6]; 100 mg/kg,1.5 ± 0.8 mL
COc1ccc2c(c1)c(CC(=O)O)c(C)n2C(=O)c1ccc(Cl)cc1 [Indomethacin],Cellular Infiltrate (Total x 10⁻⁶) MN,[1]; 5 mg/kg,7.0 ± 6.4 x 10⁻⁶
same,Cellular Infiltrate (Total x 10⁻⁶) PMN,[1]; 5 mg/kg,5.0 ± 3.8 x 10⁻⁶
same,Exudate Volume,[1]; 5 mg/kg,2.5 ± 0.8 mL
same,Increase in Ear Thickness at 1 Hour (x 10⁻³ cm),"[2]; Table 7, 10 mg/kg, p.o.",24.4 ± 0.8 x 10⁻³ cm
same,Change in Paw Volume,[3]; 5 mg/kg,0.29 ± 0.06 mL
same,(% Inhibition) of change in paw volume,[3]; 5 mg/kg,0%
same,effect on eicosanoid formation (di-HETE production),5-LO,inactive
same,% Change,"[5]; Table 3, 10 mg/kg",-12^b %
same,PMN x 10⁻⁵/ml (mean ± S.D.),"[5]; Table 3, 10 mg/kg",8.20 ± 2.65 x 10⁻⁵/ml
same,Cellular Infiltrate (Total x 10⁻⁶) MN,[6]; 5 mg/kg,4.0 ± 0.8 x 10⁻⁶
same,Cellular Infiltrate (Total x 10⁻⁶) PMN,[6]; 5 mg/kg,2.8 ± 0.7^d x 10⁻⁶
same,Exudate Volume,[6]; 5 mg/kg,2.0 ± 0.5 mL
same,HINDLEG PARALYSIS - CUMULATIVE INCIDENCE DAY 9 TO 13,[7]; 2 Mg/kg/day,6/11
same,HINDLEG PARALYSIS - CUMULATIVE INCIDENCE DAY 14 TO 18,[7]; 2 Mg/kg/day,10/11
CN(Cc1cnc2nc(N)nc(N)c2n1)c1ccc(C(=O)N[C@@H](CCC(=O)O)C(=O)O)cc1 [METHOTREXATE],HINDLEG PARALYSIS - CUMULATIVE INCIDENCE DAY 9 TO 13,[7]; 0.3 Mg/kg/day,0/11**
same,HINDLEG PARALYSIS - CUMULATIVE INCIDENCE DAY 14 TO 18,[7]; 0.3 Mg/kg/day,0/11**
